Results taken from a melting point compilation (Tetko et al.; mined from patent text by program, amines drawn as free bases though some values may be those of a salt).

Row | SMILES | melting point [°C]
1 | O=C(O)COc1ccc2c(-c3ccccc3F)csc2c1Cl | 163 to 164
2 | Cc1cccc(C2CCCCS2=O)n1 (stereo not given) | 100
3 | COc1cc(OC)c2c(=O)cc(-c3ccc(C#N)cc3)oc2c1C1CCN(C)C1CO (stereo not given) | 214 to 216
4 | Nc1cccc(-c2ccc(CC3CCCCN3Cc3ccccc3)cc2)n1 (stereo not given) | 70 to 85
5 | CCNC(=O)n1oc2ccccc2c1=O | 112 to 113
6 | CC(C)(C)OC(=O)CN1CC(c2ccccc2)CCC(N=[N+]=[N-])C1=O (stereo not given) | 119 to 121
7 | Cc1c(-c2ccccc2)nn(C(C)(C)C(=O)N(C)C)c1C | 115 to 117
8 | Cc1cccc(-c2cn(C)cc(-c3cccc(Br)c3)c2=O)c1 | 144 to 147
9 | CCOC(=O)c1[nH]c2cc(Cl)c(Cl)cc2c1-c1ccc(Cl)cc1Cl | 160 to 161
10 | CC(C)(C)c1cc(CCN2CCN(CCc3ccc(CC(=O)O)cc3)CC2)cc(C(C)(C)C)c1O | 210 to 213
11 | OC1Cc2ccccc2C1O (stereo not given) | 98 to 100
12 | COc1cc(C2=NCCc3cc(C)ccc32)cc(OC)c1OC | 105 to 106
13 | CCc1ccc(C=O)nc1 | 138 to 140
14 | Cc1nc(C(N)=O)n(COCc2ccccc2)c1Sc1ccccc1 | 153 to 154
15 | COc1ccc2cc([C@H](C)C(=O)OCC(=O)N(C)CCCO[N+](=O)[O-])ccc2c1 | 104 to 105
16 | Cc1ccc(S(=O)(=O)NC(Cc2ccccc2)C(=O)O)cc1 (stereo not given) | 134 to 135
17 | COc1ccc2c(c1)c(-c1ccccc1)cc(=O)n2Cc1c(Cl)cncc1Cl | 191 to 192
18 | CC(C)c1nn2ccccc2c1Br | 51 to 52
19 | Cc1ccc(-c2cc(CO)c3[nH]c(=O)ccc3c2)c(C)n1 | 218 to 221
20 | CC(=O)Nc1cccc(-c2nc(=O)c3ccccc3s2)c1 | 241 to 242
21 | O=C1CCN(C(=S)Nc2ccc(Cl)cc2)N1c1ccc(Cl)cc1 | 121 to 124
22 | Cc1cc(CNC(=O)CCl)c(O)c2c1CCC2=O | 166 to 168
23 | CC(=O)Nc1ccc(C(=O)NC2=Nc3cc(N4CCOCC4)ccc3C3=NCCN23)cn1 | 228
24 | COc1cc2nc(N)nc(-c3cccc(OC(F)(F)F)c3)c2cc1OC | 233 to 235
25 | CN(CCSc1ccc([N+](=O)[O-])cc1)CCc1ccc([N+](=O)[O-])cc1 | 56 to 57

Row | SMILES | melting point [°C]
26 | CC(C)(O)CCCCCc1cccc(CCc2ccc(O)c(CO)c2)c1 | 73 to 75
27 | CCOC(=O)c1ccc(COCc2csc3nc(C(=O)NCc4cccc(CS(C)(=O)=O)c4)[nH]c(=O)c23)cc1 | 227 to 229
28 | COc1ccc2c(c1)OCN(CCO[N+](=O)[O-])C2=O | 97 to 99
29 | O=C(Nc1cc(-c2nc(-c3ccco3)no2)ccc1Cl)OCC(Cl)(Cl)Cl | 114 to 116
30 | OCc1ccccc1CBr | 61 to 63
31 | COC(=O)c1ccc(C)c(SC(=O)c2ccc3c(c2)C(C)(C)CCC3(C)C)c1 | 120
32 | Cn1ccnc1Sc1ccc(Nc2c(C#N)cnc3cc(/C=C/CCN4CCC(N5CCCC5)CC4)sc23)cc1Cl | 213 to 216
33 | CC(=O)N(CCCC(=O)O)C(c1ccccc1)c1ccccc1 | 173 to 174
34 | O=C(O)C1=Cc2cc(C(F)F)ccc2OC1C(F)(F)F (stereo not given) | 135 to 136
35 | N#Cc1cccnc1CC1COc2cc3c(cc2O1)OCC31C(=O)Cc2ccccc21 (stereo not given) | 230 to 233
36 | CC1(C)OCC(C(O)CNC(=O)c2cc(C(=O)NCC(O)C3COC(C)(C)O3)cc(S(=O)(=O)Nc3ccc(F)c(C(F)(F)F)c3)c2)O1 (stereo not given) | 217 to 218
37 | CCOC(=O)C(=O)c1csc(NC(=S)Nc2ccccc2F)n1 | 192 to 193
38 | O=C(O)c1ccc(OCCOc2ccccc2)cc1 | 198 to 199
39 | COc1ccc(NC(=O)CBr)c(C(=O)O)c1 | 172 to 173
40 | CC(C)(C)OC(=O)NCCOC(=O)COc1ccc(CCCCN(C(=N)N)C(=O)c2nc(Cl)c(N)nc2N)cc1 | 80 to 82
41 | CCCCOCCOc1ccc(-c2ccc3c(c2)C=C(C(=O)O)CCN3S(C)(=O)=O)cc1 | 208 to 210
42 | CC(=O)NC[C@H]1CN(c2ccc(N3CCC4(CCO4)CC3)c(F)c2)C(=O)O1 | 164 to 166
43 | Nc1sc2c(c1C(=O)c1cccc(C(F)(F)F)c1)CCN(CCc1ccccc1)C2 | 137 to 138
44 | Cc1c(-n2c(C)ccc2C)cc(CC(C#N)=CNc2ccccc2)cc1-n1c(C)ccc1C | 252
45 | CC(=O)N1CCC(CCCCC(=O)O)CC1 | 198 to 203
46 | COCCN(C)S(=O)(=O)c1cc(-n2c(=O)cc(C(F)(F)F)n(C)c2=O)ccc1Cl | 108 to 110
47 | CNCCCNC(=O)c1[nH]c(-c2ccccc2)c2cc(Cl)ccc12 | 162 to 164
48 | Cn1nc(O[C@@H]2c3cc([N+](=O)[O-])ccc3OC(CF)(CF)[C@H]2O)ccc1=O (relative stereo) | 226 to 228
49 | CS(=O)(=O)c1ccc(-c2nnc(Oc3ccc(F)cc3F)cc2-c2ccc(Cl)cc2)cc1 | 115 to 117
50 | COC(=O)[C@H](Cc1ccc(OCCN2CCC(O)(c3ccccc3)CC2)cc1)NC(=O)[C@@H]1CCCN1S(=O)(=O)c1ccc(C)cc1 | 122 to 123

Row | SMILES | melting point [°C]
51 | COc1ccc2nc(Cl)c(C#N)cc2c1 | 201 to 202
52 | Cc1cc(C(=O)OC(C)(C)C)ccc1[N+](=O)[O-] | 56 to 58
53 | O=C(O)CN(C(=O)CN1C(=O)c2ccccc2C1=O)c1ccccc1 | 224
54 | CCc1nc2c(cnn2CC)c(NC2CCOCC2)c1CNC(=O)c1cccc(C(=O)NCc2ccc(C)c(-c3cccc(CN4CCNCC4)c3)c2)c1 | 135 to 138
55 | CC(Nc1nc(Cl)nc2c1cnn2-c1ccccc1)C(O)c1ccccc1 (stereo not given) | 164 to 165
56 | Ic1c[nH]c2nccc(OC3CCCCC3)c12 | 199 to 201
57 | Cc1nnc(-c2ccc3occ(-c4ccc(SCc5ccccc5)cc4)c3c2)o1 | 158 to 159
58 | CS(=O)(=O)NC1CCC(NC(=O)Nc2ccc(C(F)(F)F)cc2)CC1 (stereo not given) | 237 to 239
59 | Cc1c(NC(=O)CC(C)(C)C)cc2c(c1C)OC(C)(C)C2c1ccc(CO)cc1 (stereo not given) | 162 to 163
60 | CCC1=Nc2nc(C3CCCC3)[nH]c2C2=N[C@H](Cc3ccccc3)CN12 | 187 to 189
61 | COCCN(C)S(=O)(=O)c1ccccc1Nc1nc(Nc2cc3c(cc2OC)CCN(CC(=O)N(C)C)CC3)ncc1Cl | 67 to 76
62 | Cc1cc(=O)n2ncn(N)c2n1 | 202 to 204
63 | COc1nc(N)c(Cl)cc1C(=O)CCC1CCN(CC(C)(C)O)CC1 | 108
64 | COc1ccc2c(c1)c(-c1ccccc1)nc(=O)n2CC1CC1 | 114 to 115
65 | Nc1cc(Cl)cc(Nc2ncnc3[nH]cc(C(=O)c4ccccc4)c23)c1 | > 300
66 | N#Cc1ccc[nH]c1=S | 243 to 246
67 | O=C(O)c1ccc([N+](=O)[O-])cn1 | 210 to 211
68 | CS(=O)(=O)c1ccc(-c2sc(CCc3ccccc3)nc2-c2ccc(F)cc2)cc1 | 153 to 154
69 | Cc1c(-c2cccnc2)n(CCCCCC(=O)O)c2ccccc12 | 111 to 113
70 | CC(C)(CO)NS(=O)(=O)c1ccc(Cl)c(NC(=O)c2cnn3c(C(F)(F)F)cc(-c4ccc(C(F)(F)F)cc4)nc23)c1 | 246
71 | Cc1nnc2n1-c1ccc(C#CCn3ccc4ccccc43)cc1C(c1ccccc1F)=NC2 | 167 to 169
72 | COc1cncnc1N1CCN(CCCc2csc3ccc(C(N)=O)cc23)CC1 | 169 to 170
73 | O=[N+]([O-])c1cnn(-c2c(Cl)cc(C(F)(F)F)cc2Cl)c1Cl | 80 to 84
74 | Cc1nc2ccccn2c(=O)c1CCN1CCC(Nc2nc3ccccc3n2Cc2cnccn2)CC1 | 204
75 | Cc1[nH]c(C(=O)NCC2CCCCC2)c(C)c1-c1nc2ccc(C(=O)c3ccccc3)cc2[nH]1 | 254 to 255

Row | SMILES | melting point [°C]
76 | CC(C)(C)c1cc(-c2csc(SCC(=O)O)n2)cc(C(C)(C)C)c1O | 158 to 159
77 | CCOC(=O)C(C)Oc1ccc(OCc2ccccc2)cc1F (stereo not given) | 63
78 | Cc1ccc(S(=O)(=O)N2CCCC2c2ccc(F)c(Cl)c2)cc1 (racemic) | 96
79 | COc1c(C)cc2c(c1C)Cc1c-2[nH]c2ccc(C(C)C)cc12 | 130
80 | CC(C)(c1ccccc1)N1CC=C(c2ccccc2)C1=O | 85 to 86
81 | OC1CSC(Oc2cccc(-c3ccc(Cl)nc3)c2)C(O)C1O (stereo not given) | 189
82 | O=C(O)c1ccc(N2Cc3ccccc3C2=O)cc1 | > 295
83 | COc1cccc(S(=O)(=O)c2cccc(N)c2C#N)c1 | 186 to 191
84 | Cn1c(=O)c(C#N)c(Cl)c2cc(F)ccc21 | 258
85 | CC(C)(Oc1ccc(CCN)cc1)C(=O)O | 187 to 189
86 | CCCOc1ccc2cc(OCc3ccccc3)c(C(=O)O)cc2c1 | 125 to 128
87 | CNC(=O)c1cccc(NC(=O)COc2ccccc2OC)c1 | 133
88 | CCOC(=O)C=C(C)C=CC=C(C)C=Cc1c(C)c(Cl)c(C)c(Cl)c1C | 220 to 222
89 | O=c1ccc2c(Br)nccc2[nH]1 | 272 to 274
90 | O=P1(NCCCl)OCCCN1CCBr (stereo not given) | 50 to 51
91 | CN(C=O)C1CCC(=O)c2ccccc21 (single isomer, unassigned; (+)) | 92 to 93
92 | COc1cc2c(c(OC)c1)C1=C(CC2)C2=CCC(OC(C)=O)C2(C)CC1 (stereo not given) | 122 to 124
93 | CC(=N)Nc1ccc(CCc2nc(NC(C)=O)sc2Cc2ccc(S(C)(=O)=O)cc2)cc1 | 81.5 to 83
94 | CCCC(=O)Oc1ccc(C(O)CNC(C)(C)C)cc1OC(=O)CCC (stereo not given) | 97 to 99
95 | Oc1cccc2c1CCC2N1CCCCC1 (stereo not given) | 134 to 136
96 | CCOc1nn(Cc2ccc(OCc3nc(-c4ccccc4)oc3C)cc2)cc1CC(=O)O | 125 to 126
97 | Cc1cnc(CCCCn2cnc(NC(N)=NCC(F)(F)F)n2)nc1O | 235 to 237
98 | N#Cc1nn(-c2ccc(C=O)cc2)nc1-c1ccccc1 | 111 to 115
99 | COc1ccc(-c2cc(C3CCN(C(=O)c4ccccc4)CC3)nc(N)n2)cc1 | 165 to 166
100 | CC1CCc2ccc(OCC(O)CNC(C)(C)C)cc2O1 (stereo not given) | 92 to 94
